Data: patent US10842774B2, “Inhibited expression of PD-L1 and enhanced expression of PD-1” (IN Ingredients, Inc., priority 2017, dated 2020)

Tests used:
PD-1 [1] = test: Immunofluorescence densitometry of PDCD-1 (PD-1) expression in human macrophage-like THP-1 cells; type: cell-based; conditions: for percent increase of PDCD-1 expression: 24 hours at 37° C., compared to controls; for effect on PDCD-1 expression (in words): all concentrations tested, relative to control
Procedure: In the present study, human macrophage-like THP-1 cells were used to determine the effects of active agents.
Immunofluorescence studies were utilized to explore the effects of an active composition including Type-A polymers on PD-L1 and PD-1 proteins. Doubly linked procyanidin type-A polymers (3% by weight) in a dried extract of bark from C. burmanni was prepared as described (Anderson et al., J. Agric. Food Chem. 2004; 52:65-70), or provided by IN Ingredients Inc. (formerly Integrity Nutraceuticals, Columbia, Tenn., USA) as CINNULIN PF. The dried extract composition was solvated in DMSO and stored at −20° C. until use. The antibodies (anti-PD-L1, anti-PD-1) were all obtained from Santa Cruz Biotech. All other reagents used were of the highest grade available in commercial products.
(§1) Human monocytic THP-1 cells were purchased from ATCC, Manassas, Va. and were maintained in RPMI culture medium supplemented with 10% heat inactivated fetal bovine serum, 10 mM Hepes, 0.1 mM MEM non-essential amino acids, 1 mM sodium pyruvate, and […] penicillin/streptomycin in an atmosphere containing 5% CO2 and 95% air at 37° C. THP-1 monocytes were differentiated in macrophages by 48 hour incubation with phorbol 12-myristate 13-acetate (PMA, Sigma, P8139) in RPMI media at a concentration of 10 ng/mL. Cells were incubated with or without the treatment compounds at dosages indicated below at 37° C. for 24 hours. In certain treatment with LPS studies, the cells were incubated in fresh F-12 K medium supplemented with 10 μg/mL LPS and the type-A polymers at a concentration (from 3% extract) of 0 μg/ml, 5 μg/ml, 10 μg/ml, 25 μg/ml, or 50 μg/ml for 24 h at 37° C. In other treatment with LPS studies, the cells were incubated in fresh F-12 K medium supplemented with 10 μg/mL LPS and cinnamtannin D-1 at a concentration 2.5 μg/ml, 5 μg/ml, 10 μg/ml or 25 μg/ml for 24 h at 37° C.
(§2) Cells were rinsed with ice-cold PBS and fixed with 4% paraformaldehyde for 10 min at room temperature, followed by permeabilization with 0.3% Triton x-100 for 10 min. After being washed with PBS three times, cells were incubated for 1 h in PBS containing 10% normal goat serum blocking solution. The cells were subjected to immunofluorescence staining with the specific antibodies (human macrophage-like THP-1 cells analyzed for PD-1 (Santa Cruz Biotech)) overnight at 4° C. The cells were then washed with cold PBS three times for 3 min each, and incubated with Alexa-labeled secondary antibodies (Invitrogen) at room temperature for 1 h. The cells were examined by fluorescence microscopy (a Nikon TE2000-S microscope, Nikon, Tokyo, Japan). For cell counts, five to ten random fields with approximately similar density of cells in each field were selected for analysis in each plate. Fluorescence intensities (with pixel values exceeding five times the standard deviation of the background) from these images were semi-quantitatively analyzed by densitometry (ImageJ software, NIH Image).

PD-L1 [2] = test: Immunofluorescence densitometry of PD-L1 expression in rat C6 glioma cells; type: cell-based; conditions: for percent inhibition of PD-L1 expression: 24 h, compared to controls; for effect on PD-L1 expression (in words): all concentrations tested
Procedure: (§3) Immunofluorescence studies were utilized to explore the effects of an active composition including Type-A polymers on PD-L1 proteins. Purified cinnamtannin B1 and cinnamtannin D1 are obtained from Planta Analytica (New Milford, Conn.). A water extract of cinnamon with at least 3% by weight type-A polymers was obtained from IN Ingredients sold as CINNULIN PF. Each dried material was solvated in DMSO and stored at −20° C. until use. The antibodies (anti-PD-L1) were all obtained from Santa Cruz Biotech. All other reagents used were of the highest grade available in commercial products.
(§4) C6 glioma cells (CCL-107) were purchased from American Type Culture Collection (ATCC; Manassas, Va.). Cell cultures were grown in F-12 K medium (Gibco/Invitrogen) supplemented with 10% horse serum and 2% fetal bovine serum and maintained in a humidified atmosphere containing 5% CO2 and 95% air at 37° C. Cultures were grown to 85% confluency in 75 mm flasks, and cells were subcultured by trypsinization of subconfluent cultures using 0.05% trypsin with EDTA. C6 glioma cells were seeded at a density of 0.5×10^6 cells per 35 mm dish, and cultured for two days. Cells were grown to confluence during the experimental period. Three studies were performed: 1) no other treatment of the cells; 2) treatment with LPS (10 μg/mL); and 3) treatment with TNF-α (10 ng/mL). In some studies, cells were incubated in fresh F-12K medium supplemented with either cinnamtannin D1 (at a concentration of 0 μg/ml, 5 μg/ml, 10 μg/ml, 20 μg/ml, 25 μg/ml, or 50 μg/ml) or cinnamtannin B1 (at a concentration of 0 μg/ml, 5 μg/ml, 10 μg/ml, 20 μg/ml, 25 μg/ml, or 50 μg/ml) for 24 h at 37° C. In certain treatment with LPS studies, the cells were incubated in fresh F-12 K medium supplemented with 10 μg/mL LPS or incubated in fresh F-12 K medium supplemented with 10 μg/mL LPS and cinnamtannin D1 at a concentration 10 μg/ml or 50 μg/ml (5 μg/ml and 25 μg/ml were not tested) for 24 h at 37° C. In certain treatment with TNF-α studies, the cells were incubated in fresh FK-12 medium supplemented with 10 ng/mL TNF-α and cinnamtannin D1 at a concentration 10 μg/ml, 20 μg/ml or 50 μg/ml (5 μg/ml was not tested) for 24 h at 37° C.
as §2, with “(Rat C6 glioma cells studied for PD-L1 (Santa Cruz Biotech); human” for “(human”

PD-1 [3] = test: Immunofluorescence densitometry of PDCD-1 (PD-1) expression in human macrophage-like THP-1 cells; type: cell-based; conditions: 20 μg/ml, 24 hours at 37° C., compared to controls
PD-1 [4] = test: Immunofluorescence densitometry of LPS-induced PDCD-1 down expression in human macrophage-like THP-1 cells; type: cell-based; conditions: LPS 10 μg/ml; for percent inhibition of LPS-induced PDCD-1 down expression: 24 h
Procedure: as §1, §2

PD-L1 [5] = test: TNF-α-induced overexpression of PD-L1 in rat C6 glioma cells (immunofluorescence densitometry); type: cell-based; conditions: TNF-α 10 ng/ml; for percent inhibition of TNF-α-induced overexpression of PD-L1: 24 h, rat C6 glioma cells
Procedure: as §3
as §4, with “In certain treatment with TNF-α studies, the cells were incubated in fresh FK-12 medium supplemented with 10 ng/mL TNF-α and cinnamtannin D1 at a concentration 10 μg/ml, 20 μg/ml or 50 μg/ml (5 μg/ml was not tested) for 24 h at 37° C.” left out
(§5) Cells were rinsed with ice-cold PBS and fixed with 4% paraformaldehyde for 10 min at room temperature, followed by permeabilization with 0.3% Triton x-100 for 10 min. […] The cells were subjected to immunofluorescence staining with the specific antibodies (Rat C6 glioma cells studied for PD-L1 (Santa Cruz Biotech); human macrophage-like THP-1 cells analyzed for PD-1 (Santa Cruz Biotech)) overnight at 4° C. […] The cells were examined by fluorescence microscopy (a Nikon TE2000-S microscope, Nikon, Tokyo, Japan). […] Fluorescence intensities (with pixel values exceeding five times the standard deviation of the background) from these images were semi-quantitatively analyzed by densitometry (ImageJ software, NIH Image).

PD-L1 [6] = test: LPS-induced overexpression of PD-L1 in rat C6 glioma cells (immunofluorescence densitometry); type: cell-based; conditions: LPS 10 μg/ml; for percent inhibition of LPS-induced overexpression of PD-L1: 24 h, rat C6 glioma cells
Procedure: as §3
C6 glioma cells (CCL-107) were purchased from American Type Culture Collection (ATCC; Manassas, Va.). Cell cultures were grown in F-12 K medium (Gibco/Invitrogen) supplemented with 10% horse serum and 2% fetal bovine serum and maintained in a humidified atmosphere containing 5% CO2 and 95% air at 37° C. Cultures were grown to 85% confluency in 75 mm flasks, and cells were subcultured by trypsinization of subconfluent cultures using 0.05% trypsin with EDTA. C6 glioma cells were seeded at a density of 0.5×10^6 cells per 35 mm dish, and cultured for two days. Cells were grown to confluence during the experimental period. Three studies were performed: 1) no other treatment of the cells; 2) treatment with LPS (10 μg/mL); and 3) treatment with TNF-α (10 ng/mL). […]
as §5

PD-L1 [7] = conditions: treatment for metastatic melanoma (Laubli et al. 2015); cited from earlier work

Compound	percent increase of PDCD-1 expression (PD-1 [1]; 2.5 μg/ml)	percent increase of PDCD-1 expression (PD-1 [1]; 5 μg/ml)	percent increase of PDCD-1 expression (PD-1 [1]; 10 μg/ml)	effect on PDCD-1 expression (in words) (PD-1 [1])	percent inhibition of PD-L1 expression (PD-L1 [2]; 5 μg/ml)	percent inhibition of PD-L1 expression (PD-L1 [2]; 10 μg/ml)	percent inhibition of PD-L1 expression (PD-L1 [2]; 25 μg/ml)	percent inhibition of PD-L1 expression (PD-L1 [2]; 50 μg/ml)	effect on PD-L1 expression (in words) (PD-L1 [2])	percent increase of PDCD-1 expression (PD-1 [3])	percent increase of PDCD-1 expression (PD-1 [1]; 50 μg/ml)	also measured
Oc1cc(O)c2c(c1)O[C@@]1(c3ccc(O)c(O)c3)Oc3cc(O)c4c(c3[C@@H]2C1O)OC(c1ccc(O)c(O)c1)[C@H](O)C4c1c(O)cc(O)c2c1O[C@H](c1ccc(O)c(O)c1)[C@H](O)C2 (some centres unmarked) [cinnamtannin B-1, cinnamtannin B1]	21%	42%	83%	significantly enhanced	35.7%	60.8%	54.9%	41.9%	significantly inhibited	62%		
Oc1cc(O)c2c(c1)O[C@@]1(c3ccc(O)c(O)c3)Oc3cc(O)c4c(c3[C@@H]2[C@H]1O)O[C@H](c1ccc(O)c(O)c1)[C@H](O)[C@H]4c1c(O)cc(O)c2c1O[C@H](c1ccc(O)c(O)c1)[C@@H](O)C2 [cinnamtannin D-1, (2R,3R,4S,8S,14R, 15R)-2,8-bis(3,4-dihydroxyphenyl)-4-[(2R,3S)-2-(3,4-dihydroxyphenyl)-3,5,7-trihydroxy-3,4-dihydro-2H-1-benzopyran-8-yl]-3,4-dihydro-2H,8H,14H-8,14-methano-1,7,9-trioxabenzo[6,7]cycloocta[1,2-a]naphthalene-3,5,11,13,15-pentol]	18%	45%	87%	significantly enhanced	39.9%	66.8%	58.1%	43.6%	significantly inhibited	71%		percent inhibition of LPS-induced PDCD-1 down expression (PD-1 [4]; 2.5 μg/ml): 42%; percent inhibition of LPS-induced PDCD-1 down expression (PD-1 [4]; 5 μg/ml): 98%; percent inhibition of LPS-induced PDCD-1 down expression (PD-1 [4]; 10 μg/ml): 81%; percent inhibition of LPS-induced PDCD-1 down expression (PD-1 [4]; 25 μg/ml): 48%; effect on LPS-induced PD-1 down-regulation (in words) (PD-1 [4]; all concentrations tested): significantly improved; percent inhibition of TNF-α-induced overexpression of PD-L1 (PD-L1 [5]; 10 μg/ml): 32.0%; percent inhibition of TNF-α-induced overexpression of PD-L1 (PD-L1 [5]; 20 μg/ml): 42.2%; percent inhibition of TNF-α-induced overexpression of PD-L1 (PD-L1 [5]; 50 μg/ml): 43.9%; effect on TNF-α-induced overexpression of PD-L1 (in words) (PD-L1 [5]; all concentrations tested (10, 20, 50 μg/ml)): significantly inhibited; percent inhibition of LPS-induced overexpression of PD-L1 (PD-L1 [6]; 10 μg/ml): 48.9%; percent inhibition of LPS-induced overexpression of PD-L1 (PD-L1 [6]; 50 μg/ml): 53.0%; effect on LPS-induced overexpression of PD-L1 (in words) (PD-L1 [6]; all concentrations tested): significantly inhibited
O=C(O)c1cc(O)c(O)c(O)c1 [garlic acid]			47%	significantly enhanced						71%	52%	
O=c1c(O)c(-c2ccc(O)c(O)c2)oc2cc(O)cc(O)c12 [quercetin]			33%	significantly enhanced						78%	57%	
C[C@@H]1O[C@@H](OC[C@H]2O[C@@H](Oc3c(-c4ccc(O)c(O)c4)oc4cc(O)cc(O)c4c3=O)[C@H](O)[C@@H](O)[C@@H]2O)[C@H](O)[C@H](O)[C@H]1O [rutin]			17%							48%	43%	
pembrolizumab: antibody therapeutic cited for targeted inhibition of PD-L1 with cardiac side effect												cardiac side effect associated with treatment (PD-L1 [7]): acute heart failure due to autoimmune myocarditis
